Results taken from US20240165097A1, “PHARMACEUTICAL COMPOSITION FOR THE TREATMENT OF ALZHEIMER'S DISEASE OR DEMENTIA” (Heptares Therapeutics Limited, priority 2021, published 2024).

Key:
[1] = target: T1, human muscarinic M1 receptor (Homo sapiens, UniProt P11229); experiment: Alphascreen Surefire phospho-ERK1/2 assay, M1; type: cell-based; conditions: for EC50: CHO cells, agonist 5 min, read-out: pEC50 M1 (converted)
T1 construct: expressed in transfected cells
T1 sequence (P11229 1-460): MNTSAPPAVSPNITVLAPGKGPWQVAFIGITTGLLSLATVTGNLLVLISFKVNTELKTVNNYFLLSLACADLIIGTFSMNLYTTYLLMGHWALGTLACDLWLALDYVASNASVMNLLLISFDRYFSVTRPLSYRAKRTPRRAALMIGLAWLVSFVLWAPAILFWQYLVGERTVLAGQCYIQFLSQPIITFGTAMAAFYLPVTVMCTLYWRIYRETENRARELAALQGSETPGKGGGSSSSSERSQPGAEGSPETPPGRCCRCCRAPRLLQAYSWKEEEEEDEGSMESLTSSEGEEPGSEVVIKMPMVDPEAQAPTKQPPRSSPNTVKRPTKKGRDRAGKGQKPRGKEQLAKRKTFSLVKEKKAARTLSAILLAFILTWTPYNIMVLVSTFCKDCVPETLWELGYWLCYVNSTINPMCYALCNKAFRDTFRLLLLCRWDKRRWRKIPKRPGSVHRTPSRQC
Protocol: (§1) ERK1/2 phosphorylation is a downstream consequence of both Gq/11 and Gi/o protein coupled receptor activation, making it highly suitable for the assessment of M1, M3 (Gq/11 coupled) and M2, M4 receptors (Gi/o coupled), rather than using different assay formats for different receptor subtypes. CHO cells stably expressing the human muscarinic M1, M2, M3 or M4 receptor were plated (25K/well) onto 96-well tissue culture plates in MEM-alpha+10% dialysed FBS. Once adhered, cells were serum-starved overnight. Agonist stimulation was performed by the addition of 5 μL agonist to the cells for 5 min (37° C.). Media was removed and 50 μL of lysis buffer added.

[2] = target: T2, human muscarinic M2 receptor (Homo sapiens, UniProt P08172); experiment: Alphascreen Surefire phospho-ERK1/2 assay, M2; type: cell-based; conditions: CHO cells, agonist 5 min
T2 construct: expressed in transfected cells
T2 sequence (P08172 1-466): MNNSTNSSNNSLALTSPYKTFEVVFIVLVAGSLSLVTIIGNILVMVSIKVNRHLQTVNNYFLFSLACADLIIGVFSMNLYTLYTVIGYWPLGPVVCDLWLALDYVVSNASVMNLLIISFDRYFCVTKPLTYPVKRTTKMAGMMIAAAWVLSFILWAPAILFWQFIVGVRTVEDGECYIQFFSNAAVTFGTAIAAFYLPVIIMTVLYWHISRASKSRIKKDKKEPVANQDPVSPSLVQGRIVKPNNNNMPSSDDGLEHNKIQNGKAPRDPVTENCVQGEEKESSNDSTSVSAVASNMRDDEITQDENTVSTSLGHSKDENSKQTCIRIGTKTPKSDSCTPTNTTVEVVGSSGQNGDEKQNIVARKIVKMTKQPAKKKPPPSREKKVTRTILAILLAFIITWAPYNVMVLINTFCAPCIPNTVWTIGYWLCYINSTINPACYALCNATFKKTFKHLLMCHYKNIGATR
Protocol: as §1

[3] = target: T3, human muscarinic M3 receptor (Homo sapiens, UniProt P20309); experiment: Alphascreen Surefire phospho-ERK1/2 assay, M3; type: cell-based; conditions: CHO cells, agonist 5 min; read-out: pEC50 M3 (converted)
T3 construct: expressed in transfected cells
T3 sequence (P20309 whole entry): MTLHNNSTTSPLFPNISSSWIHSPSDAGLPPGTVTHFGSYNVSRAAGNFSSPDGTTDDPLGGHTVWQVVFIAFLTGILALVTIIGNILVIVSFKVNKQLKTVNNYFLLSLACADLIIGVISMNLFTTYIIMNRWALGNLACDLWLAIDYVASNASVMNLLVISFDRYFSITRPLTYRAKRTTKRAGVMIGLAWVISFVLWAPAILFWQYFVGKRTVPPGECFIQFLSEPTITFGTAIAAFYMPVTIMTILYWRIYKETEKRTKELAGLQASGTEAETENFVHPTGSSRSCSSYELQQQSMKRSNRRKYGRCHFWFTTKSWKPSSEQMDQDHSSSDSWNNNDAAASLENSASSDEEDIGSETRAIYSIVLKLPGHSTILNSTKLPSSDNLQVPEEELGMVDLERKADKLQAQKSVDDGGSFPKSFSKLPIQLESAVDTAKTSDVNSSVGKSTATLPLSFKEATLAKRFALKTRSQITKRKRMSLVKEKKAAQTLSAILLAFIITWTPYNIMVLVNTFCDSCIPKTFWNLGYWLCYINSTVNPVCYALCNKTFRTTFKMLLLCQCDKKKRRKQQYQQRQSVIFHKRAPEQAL
Protocol: as §1

[4] = target: T4, human muscarinic M4 receptor (Homo sapiens, UniProt P08173); experiment: Alphascreen Surefire phospho-ERK1/2 assay, M4; type: cell-based; conditions: CHO cells, agonist 5 min; read-out: pEC50 M4 (converted)
T4 construct: expressed in transfected cells
T4 sequence (P08173 1-479): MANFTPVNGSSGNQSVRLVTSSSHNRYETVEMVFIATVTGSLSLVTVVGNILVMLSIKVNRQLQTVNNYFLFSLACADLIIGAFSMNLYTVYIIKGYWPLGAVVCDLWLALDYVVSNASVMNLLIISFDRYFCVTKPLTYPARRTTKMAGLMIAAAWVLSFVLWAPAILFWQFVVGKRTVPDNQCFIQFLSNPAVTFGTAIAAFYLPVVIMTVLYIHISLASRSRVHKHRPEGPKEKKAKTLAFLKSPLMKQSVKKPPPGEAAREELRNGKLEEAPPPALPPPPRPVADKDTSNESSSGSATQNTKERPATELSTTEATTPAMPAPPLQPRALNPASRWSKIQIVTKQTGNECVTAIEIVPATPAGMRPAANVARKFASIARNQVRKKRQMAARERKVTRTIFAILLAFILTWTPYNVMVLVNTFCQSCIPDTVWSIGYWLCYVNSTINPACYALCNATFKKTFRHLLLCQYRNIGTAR
Protocol: as §1

[5] = tested on: scopolamine-induced amnesia; experiment: Passive avoidance task; type: in vivo; conditions: 3, 10, 30 mg/kg po
Protocol: Studies were carried out as described previously by Foley et al., (2004) Neuropsychopharmacology. In the passive avoidance task scopolamine administration (1 mg/kg, i.p.) at 6 hours following training rendered animals amnesic of the paradigm. A dose range of 3, 10, and 30 mg/kg (po) free base, administered 90 minutes prior to the training period via oral gavage, was examined.

[6] = tested on: patients with mild-to-moderate AD; conditions: human, in vivo; cited from earlier work

| SMILES | EC50 [1] | Emax ([1]; CHO, read-out: % Emax cf. ACh, M1, CHO cells, agonist 5 min) | EC50 ([2]; read-out: pEC50 M2 (converted)) | Emax ([2]; read-out: % Emax cf. ACh, M2) | EC50 [3] | EC50 [4] | effect on scopolamine-induced amnesia [5] | incidence of cholinergic adverse events [6] |
| --- | --- | --- | --- | --- | --- | --- | --- | --- |
| CCOC(=O)N1C2CCC1CC(N1CCC3(CC1)CNC(=O)C3)C2 (single isomer, unassigned) [Example 2-2 Isomer 1, ethyl 3-(3-oxo-2,8-diazaspiro[4.5]dec-8-yl)-8-azabicyclo[3.2.1]octane-8-carboxylate] | 0.0794 µM | 99% | > 20 µM | 0% | > 20 µM | 0.2 µM | reverse scopolamine-induced amnesia of the paradigm in a dose-dependent manner | – |
| CCOC(=O)N1C2CCC1CC(N1CCC3(CC1)CNC(=O)C3)C2 (single isomer, unassigned) [Example 2-2 Isomer 2, ethyl 3-(3-oxo-2,8-diazaspiro[4.5]dec-8-yl)-8-azabicyclo[3.2.1]octane-8-carboxylate] | 0.0126 µM | – | – | – | – | 0.0251 µM | – | – |
| Cc1ccc(Cc2cc3c(=O)n([C@H]4CCCC[C@@H]4O)cnc3c3ccccc23)cn1 [MK-7622] | – | – | – | – | – | – | – | 21% |
